Assay results published in paper PMC8391421, “Identification of Novel Positive Allosteric Modulators of Neurotrophin Receptors for the Treatment of Cognitive Dysfunction” (Cells, 2021).

Key:
[1] = molecular target: T1, insulin-like growth factor 1 receptor (IGF1R) (Homo sapiens, UniProt P08069); assay: IGF1R PathHunter cell-based assay (HEK293-IGF1R)
T1 construct: host or cells: HEK293
Description: The human osteosarcoma cell lines U2OS-TrkA/p75, U2OS-TrkB/p75, U2OS-TrkC/p75, U2OS-ratTrkA/p75, U2OS-FGFR1 (fibroblast growth factor receptor 1) as well as the human embryonic kidney cell line HEK293-IGF1R (insulin-like growth factor 1 receptor) from DiscoverX, Birmingham, United Kingdom, were used in the in vitro experiments. Eagle’s minimum essential medium (EMEM) ATCC #30-2003 from LGC Standards AB, Borås, Sweden; Leibovitz’s L15 medium, RPMI1640, fetal bovine serum, horse serum, penicillin/streptomycin, and Hoechst dye purchased from Invitrogen, Gothenburg, Sweden, were also used. Black poly-D-lysine coated 384-well plates (Viewplate) were purchased from PerkinElmer, Upplands Väsby, Sweden, and white 384-well assay plates(3570) were purchased from Corning, Amsterdam, Netherlands. […] Recombinant intracellular domain (ICD) of TrkA (08-186) and single site biotinylated activated (08-486-20N) or non-activated TrkA (08-486-23N) were obtained from Carna Biosciences, Odense, Denmark. […]
U2OS cells were maintained subconfluent in EMEM supplemented with 10% FBS and penicillin/streptomycin/hygromycin and G418. […] The functional (complemented) β-gal will hydrolyze a substrate to generate a luminescence signal. The generated luminescence was read using an EnVision plate reader from PerkinElmer, Upplands Väsby, Sweden, or an ID5 plate reader from Molecular Devices, Berkshire, RG41 5TS UK. […]

C57BL/6J mice = assay: Passive avoidance task; assay type: in vivo, mouse
Method: The passive avoidance (PA) task is an associate learning paradigm that is based on Pavlovian fear-conditioning and instrumental conditioning and conducted as previously described in male C57BL/6J mice (n = 7–8/group) from Charles River Laboratories, Sulzfeld, Germany. Vehicle or ACD855 (1, 3 or 10 mg/kg), formulated in 20% DMSO in 0.1 M sodium phosphate buffer pH 8.0, was administered daily (Days 1–4) through s.c. injections (4 mL/kg body weight). ACD856 (0.1, 0.3, 1 or 3 mg/kg) was administered by a single s.c. dose on the training day (Day 4). ACD855, ACD856, ANA-12 (0.5 mg/kg, from Sigma Aldrich, Stockholm, Sweden), physostigmine (0.025 mg/kg, from Sigma Aldrich, Stockholm, Sweden), or vehicle was administered 60 min prior to training, except for when addressing the effects on consolidation, in which case, ACD856 was dosed 5 min after the training session on day 4. Moreover, on the training day (Day 4), scopolamine or the NMDA-antagonist MK-801 (both from Sigma Aldrich, Stockholm, Sweden) at 0.3 mg/kg or vehicle was administered once s.c. 30 min prior to training. No compound was administered on the test day (Day 5), except for when addressing effects on retrieval, in which case, ACD856 was dosed 30 min prior to testing on day 5. Retention latencies and time spent in the bright compartment were determined 24 h after training (Day 5).

TrkB = molecular target: T2, TrkB (Homo sapiens, UniProt Q16620); assay: TrkB PathHunter cell-based assay (U2OS-TrkB/p75)
T2 construct: host or cells: U2OS (human osteosarcoma), co-expressing p75 and SHC-1 fused to the enzyme acceptor
Method: U2OS cells were maintained subconfluent in EMEM supplemented with 10% FBS and penicillin/streptomycin/hygromycin and G418. One day prior to the experiment, 5000 cells of EMEM supplemented with 0.5% horse serum were seeded in each well of a 384-well white plate. The assay was performed as previously described. Briefly, the TrkA or TrkB cell-based PathHunter® assays use enzyme fragment complementation (EFC) technology for the complementation of two β-galactosidase (β-gal) fragments in order to study protein–protein interactions. Upon activation with ligand, TrkA or TrkB are phosphorylated on several tyrosine residues, including tyrosine 490, leading to an interaction with SHC-1. In the PathHunter® assays, the Trk-receptors are fused to an enzyme donor tag, and SHC-1 is fused to a larger part of β-gal called an enzyme acceptor. The interactions between the recombinant enzyme donor, i.e., the Trk-receptor, with an enzyme acceptor, i.e., SHC-1, leads to an active β-gal enzyme. The functional (complemented) β-gal will hydrolyze a substrate to generate a luminescence signal. The generated luminescence was read using an EnVision plate reader from PerkinElmer, Upplands Väsby, Sweden, or an ID5 plate reader from Molecular Devices, Berkshire, RG41 5TS UK. […] Min- and Max-control wells were included on each plate. A compound was considered a hit if the percent activation was more than 50% and if the value was two standard deviations higher than the mean value of all of the samples on the plate. The average activation of all of samples on 10 different 384-well plates was 31%. […] Due to the risk of adverse events with the systemic administration of TrkA agonists, the screen and the re-screen processes were designed to increase the likelihood of identifying the positive modulators of NGF-signaling rather than identifying TrkA agonists. Based on the results of the re-screen, in combination with the physical–chemical properties of the molecules, a collection of hits was used for the EC50 determinations.
Both Toltrazuril and Ponazuril are registered veterinary products prescribed for parasitic infections in animals. […] The cellular response to NGF or BDNF was measured using PathHunter® assays employing β-gal enzyme fragment complementation technology. The activation of Trk-receptors leads to an intracellular interaction between the Trk-receptor and SHC-1 and thereby to the complementation of β-gal, which will render in a functional enzyme. β-gal will hydrolyze a substrate to generate luminescence, which is proportional to the number of activated receptors. […]

T2 sequence (Q16620 32-822): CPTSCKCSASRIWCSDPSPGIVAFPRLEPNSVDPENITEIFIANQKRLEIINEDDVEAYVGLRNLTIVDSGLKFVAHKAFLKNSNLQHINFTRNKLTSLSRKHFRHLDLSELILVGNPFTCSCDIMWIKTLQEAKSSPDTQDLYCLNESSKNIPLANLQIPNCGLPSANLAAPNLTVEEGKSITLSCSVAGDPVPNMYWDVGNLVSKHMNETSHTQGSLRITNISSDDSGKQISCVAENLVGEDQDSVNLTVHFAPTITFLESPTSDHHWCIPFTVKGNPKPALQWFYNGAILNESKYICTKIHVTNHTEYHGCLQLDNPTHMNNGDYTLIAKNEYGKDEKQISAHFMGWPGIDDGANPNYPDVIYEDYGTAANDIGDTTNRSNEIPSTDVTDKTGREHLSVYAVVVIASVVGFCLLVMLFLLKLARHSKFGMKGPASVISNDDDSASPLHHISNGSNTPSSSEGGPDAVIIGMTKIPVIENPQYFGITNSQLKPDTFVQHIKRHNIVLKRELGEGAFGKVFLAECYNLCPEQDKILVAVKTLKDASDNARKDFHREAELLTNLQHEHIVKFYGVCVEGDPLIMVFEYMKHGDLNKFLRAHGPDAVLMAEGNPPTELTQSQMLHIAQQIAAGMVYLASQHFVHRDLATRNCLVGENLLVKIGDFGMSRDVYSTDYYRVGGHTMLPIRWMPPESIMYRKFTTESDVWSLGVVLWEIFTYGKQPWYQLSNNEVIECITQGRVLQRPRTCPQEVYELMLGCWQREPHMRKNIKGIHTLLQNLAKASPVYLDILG
T1 sequence (P08069 31-1367): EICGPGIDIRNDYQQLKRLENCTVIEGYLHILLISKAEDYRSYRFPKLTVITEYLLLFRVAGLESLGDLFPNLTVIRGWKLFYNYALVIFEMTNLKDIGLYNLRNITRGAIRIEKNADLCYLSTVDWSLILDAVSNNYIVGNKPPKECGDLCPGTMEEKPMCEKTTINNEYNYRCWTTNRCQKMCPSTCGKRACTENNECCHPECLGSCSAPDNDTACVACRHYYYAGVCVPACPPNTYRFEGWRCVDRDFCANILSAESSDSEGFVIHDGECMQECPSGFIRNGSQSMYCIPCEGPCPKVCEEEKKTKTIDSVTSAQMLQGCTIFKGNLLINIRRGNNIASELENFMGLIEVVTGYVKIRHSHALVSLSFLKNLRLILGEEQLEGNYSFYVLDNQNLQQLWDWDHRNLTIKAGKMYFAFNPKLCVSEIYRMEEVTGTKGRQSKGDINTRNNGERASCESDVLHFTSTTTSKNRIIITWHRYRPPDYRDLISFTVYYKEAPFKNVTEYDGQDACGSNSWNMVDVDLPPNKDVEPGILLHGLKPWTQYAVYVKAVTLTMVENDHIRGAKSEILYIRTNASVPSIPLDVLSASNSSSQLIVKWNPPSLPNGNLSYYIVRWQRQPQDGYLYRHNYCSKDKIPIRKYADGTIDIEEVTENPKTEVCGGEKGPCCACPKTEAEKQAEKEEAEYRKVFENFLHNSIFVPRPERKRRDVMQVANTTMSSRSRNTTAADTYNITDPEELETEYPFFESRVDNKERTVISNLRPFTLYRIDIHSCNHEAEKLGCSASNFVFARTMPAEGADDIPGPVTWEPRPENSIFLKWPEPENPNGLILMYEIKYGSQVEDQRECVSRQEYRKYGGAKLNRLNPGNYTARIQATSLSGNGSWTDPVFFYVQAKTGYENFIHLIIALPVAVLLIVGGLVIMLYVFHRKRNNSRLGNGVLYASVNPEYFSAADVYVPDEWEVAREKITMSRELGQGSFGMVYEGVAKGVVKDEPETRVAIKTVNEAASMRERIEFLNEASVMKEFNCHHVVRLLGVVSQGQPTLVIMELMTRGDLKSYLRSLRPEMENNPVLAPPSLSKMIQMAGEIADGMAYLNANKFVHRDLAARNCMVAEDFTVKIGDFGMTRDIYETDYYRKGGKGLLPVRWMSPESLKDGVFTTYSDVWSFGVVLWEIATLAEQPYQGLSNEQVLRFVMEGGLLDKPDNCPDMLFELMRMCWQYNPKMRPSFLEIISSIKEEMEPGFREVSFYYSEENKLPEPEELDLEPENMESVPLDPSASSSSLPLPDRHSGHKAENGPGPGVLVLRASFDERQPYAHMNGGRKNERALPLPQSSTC

Cc1cc(-n2c(=O)[nH]c(=O)n(C)c2=O)ccc1Oc1ccc(S(=O)(=O)C(F)(F)F)cc1 [ACD855, Toltrazuril-sulfone]
EC50 [1]: 0.9 µM
IGF1R Effect (efficacy) [1]: 25%
effect on scopolamine-induced memory impairment (time spent in bright compartment) (C57BL/6J mice; 3 or 10 mg/kg s.c. once daily for four days, scopolamine 0.3 mg/kg): significantly attenuate
effect of ANA-12 on compound's reversal of scopolamine-induced memory impairment (C57BL/6J mice; ANA-12 0.5 mg/kg s.c.): blocked by ANA-12
effect on MK-801-induced memory impairment (C57BL/6J mice; MK-801 0.3 mg/kg): ameliorate
effect of combined administration with physostigmine on scopolamine-induced memory impairment (C57BL/6J mice; low dose of compound plus physostigmine 0.025 mg/kg): significantly reverse
effect of low dose alone on scopolamine-induced memory impairment (C57BL/6J mice; low doses given by themselves, physostigmine 0.025 mg/kg): no significant effect
pro-cognitive effects and other behavioral parameters in naive animals (C57BL/6J mice; naïve young healthy animals): none of the two compounds had any pro-cognitive effects
EC50 (TrkB; PathHunter cell-based assay): 3.2 µM
TrkB Effect (efficacy) (TrkB; PathHunter cell-based assay): 319%
activation of TrkB-receptor by compound itself (TrkB; without ligand, 100% = 30 ng/mL ligand): 45%
